This experiment concerns the target T1, Cdc7 (BEV coexpressed huCDC7/DBF4) (Homo sapiens, UniProt O00311).
T1 construct: made in house; host or cells: BEV (baculovirus expression vector) co-expression; insect cells are implied but no cell line is named
As to the kind of experiment: Cdc7 enzyme inhibition assay ([33P]ATP, biotinylated peptide substrate, FlashPlate). The class given is biochemical. The conditions noted are these: Table 3; enzyme inhibition data (Ki). As for the experimental part: Cdc7 (BEV coexpressed huCDC7/DBF4) is prepared internally. Cdc7 assays are conducted as follows with final concentrations as listed. […] Reactions are quenched after 1 hr by the addition of 90 μL stop buffer (50 mM EDTA, 2M NaCl). […] (Ki) for exemplary compounds.

The structures appear in SMILES notation.

In general, Ki refers to the equilibrium dissociation constant of an inhibitor or competing ligand from its target. A low value points to a stronger hold on the target.

T1 sequence (O00311 whole entry): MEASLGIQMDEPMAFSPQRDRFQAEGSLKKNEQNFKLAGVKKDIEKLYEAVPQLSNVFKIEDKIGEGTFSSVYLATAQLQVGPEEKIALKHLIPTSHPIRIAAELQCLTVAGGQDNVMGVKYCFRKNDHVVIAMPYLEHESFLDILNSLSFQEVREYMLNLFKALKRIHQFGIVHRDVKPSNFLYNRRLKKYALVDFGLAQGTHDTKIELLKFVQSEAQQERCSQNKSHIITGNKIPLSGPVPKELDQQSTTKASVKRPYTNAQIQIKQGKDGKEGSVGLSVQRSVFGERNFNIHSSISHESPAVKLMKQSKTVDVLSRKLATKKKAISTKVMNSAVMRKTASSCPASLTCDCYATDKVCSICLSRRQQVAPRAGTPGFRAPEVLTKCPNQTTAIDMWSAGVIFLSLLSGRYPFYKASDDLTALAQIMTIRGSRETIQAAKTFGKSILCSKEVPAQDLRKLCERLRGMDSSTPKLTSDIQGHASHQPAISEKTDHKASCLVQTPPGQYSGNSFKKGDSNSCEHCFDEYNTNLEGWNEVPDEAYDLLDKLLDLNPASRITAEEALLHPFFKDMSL
T1 sequence (Q9UBU7 whole entry partner): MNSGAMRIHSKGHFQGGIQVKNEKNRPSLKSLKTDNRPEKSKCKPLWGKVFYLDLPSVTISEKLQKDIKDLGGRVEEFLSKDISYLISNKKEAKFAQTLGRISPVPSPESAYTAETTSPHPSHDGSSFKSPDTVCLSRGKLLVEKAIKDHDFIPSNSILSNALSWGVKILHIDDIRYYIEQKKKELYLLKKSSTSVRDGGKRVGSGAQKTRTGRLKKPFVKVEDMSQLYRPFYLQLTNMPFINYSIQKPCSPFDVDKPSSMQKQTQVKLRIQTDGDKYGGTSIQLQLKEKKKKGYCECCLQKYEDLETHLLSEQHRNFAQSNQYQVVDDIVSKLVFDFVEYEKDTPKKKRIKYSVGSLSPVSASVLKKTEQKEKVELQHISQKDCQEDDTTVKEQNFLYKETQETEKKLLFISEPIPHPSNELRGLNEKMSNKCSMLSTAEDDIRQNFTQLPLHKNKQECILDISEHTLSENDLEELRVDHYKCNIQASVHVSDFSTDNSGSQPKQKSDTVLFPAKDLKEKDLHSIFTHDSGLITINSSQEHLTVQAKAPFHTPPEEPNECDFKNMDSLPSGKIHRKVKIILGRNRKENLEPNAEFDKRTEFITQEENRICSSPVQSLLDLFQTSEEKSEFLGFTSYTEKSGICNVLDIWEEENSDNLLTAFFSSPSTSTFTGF

`O=C(N[C@H]1CC[C@H](Nc2cc(-c3c[nH]c4ncccc34)cc(Cl)n2)CC1)C1CN(Cc2cccnc2)C1` [Example 209, N-(trans-4-{[6-chloro-4-(1H-pyrrolo[2,3-b]pyridin-3-yl)pyridin-2-yl]amino}cyclohexyl)-1-(pyridin-3-ylmethyl)azetidine-3-carboxamide] returned a Ki of less than 10 nM. For `O=C(N[C@H]1CC[C@H](Nc2cc(-c3c[nH]c4ncccc34)cc(Cl)n2)CC1)C1CN(Cc2ccc(F)cc2F)C1` [Example 210, N-(trans-4-{[6-chloro-4-(1H-pyrrolo[2,3-b]pyridin-3-yl)pyridin-2-yl]amino}cyclohexyl)-1-(2,4-difluorobenzyl)azetidine-3-carboxamide] the value was less than 10 nM; for `Cn1ccc(CN2CC(C(=O)N[C@H]3CC[C@H](Nc4cc(-c5c[nH]c6ncccc56)cc(Cl)n4)CC3)C2)n1` [Example 211, N-(trans-4-{[6-chloro-4-(1H-pyrrolo[2,3-b]pyridin-3-yl)pyridin-2-yl]amino}cyclohexyl)-1-[(1-methyl-1H-pyrazol-3-yl)methyl]azetidine-3-carboxamide], less than 10 nM.

`OCCn1cc(-c2cnc3[nH]cc(-c4cc(Cl)nc(NC5CCCCC5)c4)c3c2)cn1` [Example 212, 2-(4-{3-[2-chloro-6-(cyclohexylamino)pyridin-4-yl]-1H-pyrrolo[2,3-b]pyridin-5-yl}-1H-pyrazol-1-yl)ethanol]: the Ki is less than 10 nM.

In turn, `COc1cnc2[nH]cc(-c3cc(Cl)nc(N[C@H]4CC[C@H](N)CC4)c3)c2c1` [Example 213, trans-N-[6-chloro-4-(5-methoxy-1H-pyrrolo[2,3-b]pyridin-3-yl)pyridin-2-yl]cyclohexane-1,4-diamine] came in with a Ki of less than 10 nM.

`Clc1cc(-c2c[nH]c3ncc(-c4cccnc4)cc23)cc(NC2CCCCC2)n1` [Example 214, 6-chloro-N-cyclohexyl-4-[5-(pyridin-3-yl)-1H-pyrrolo[2,3-b]pyridin-3-yl]pyridin-2-amine] returned an inhibition constant Ki of less than 10 nM. To `Clc1cc(-c2c[nH]c3ncc(-c4ccsc4)cc23)cc(NC2CCCCC2)n1` [Example 215, 6-chloro-N-cyclohexyl-4-[5-(thiophen-3-yl)-1H-pyrrolo[2,3-b]pyridin-3-yl]pyridin-2-amine] belongs 10 to 100 nM.

Compound `COc1cnc2[nH]cc(-c3cc(Cl)nc(N[C@H]4CC[C@H](NC(=O)C5CC5)CC4)c3)c2c1` [Example 216, N-(trans-4-{[6-chloro-4-(5-methoxy-1H-pyrrolo[2,3-b]pyridin-3-yl)pyridin-2-yl]amino}cyclohexyl)cyclopropanecarboxamide] gave a Ki of less than 10 nM. To `COc1cnc2[nH]cc(-c3cc(Cl)nc(N[C@H]4CC[C@H](NC(=O)C5CN(Cc6ccccc6)C5)CC4)c3)c2c1` [Example 217, 1-benzyl-N-(trans-4-{[6-chloro-4-(5-methoxy-1H-pyrrolo[2,3-b]pyridin-3-yl)pyridin-2-yl]amino}cyclohexyl)azetidine-3-carboxamide] belongs less than 10 nM. `COc1cnc2[nH]cc(-c3cc(Cl)nc(N[C@H]4CC[C@H](NS(=O)(=O)C5CC5)CC4)c3)c2c1` [Example 218, N-(trans-4-{[6-chloro-4-(5-methoxy-1H-pyrrolo[2,3-b]pyridin-3-yl)pyridin-2-yl]amino}cyclohexyl)cyclopropanesulfonamide] yielded a Ki of less than 10 nM. For `COc1cnc2[nH]cc(-c3cc(Cl)nc(N[C@H]4CC[C@H](NS(C)(=O)=O)CC4)c3)c2c1` [Example 220, N-(trans-4-{[6-chloro-4-(5-methoxy-1H-pyrrolo[2,3-b]pyridin-3-yl)pyridin-2-yl]amino}cyclohexyl)methanesulfonamide] the value was less than 10 nM; for `CN1CCN(Cc2cccc(-c3cnc4[nH]cc(-c5cc(Cl)nc(NC6CCCCC6)c5)c4c3)c2)CC1` [Example 221, 6-chloro-N-cyclohexyl-4-(5-{3-[(4-methylpiperazin-1-yl)methyl]phenyl}-1H-pyrrolo[2,3-b]pyridin-3-yl)pyridin-2-amine], less than 10 nM; for `NS(=O)(=O)c1cccc(-c2cnc3[nH]cc(-c4cc(Cl)nc(NC5CCCCC5)c4)c3c2)c1` [Example 222, 3-{3-[2-chloro-6-(cyclohexylamino)pyridin-4-yl]-1H-pyrrolo[2,3-b]pyridin-5-yl}benzenesulfonamide], less than 10 nM. On to `NS(=O)(=O)c1ccc(-c2cnc3[nH]cc(-c4cc(Cl)nc(NC5CCCCC5)c4)c3c2)cc1` [Example 223, 4-{3-[2-chloro-6-(cyclohexylamino)pyridin-4-yl]-1H-pyrrolo[2,3-b]pyridin-5-yl}benzenesulfonamide], for which the Ki was less than 10 nM. For `CCOc1cnc2[nH]cc(-c3cc(Cl)nc(N[C@H]4CC[C@H](N)CC4)c3)c2c1` [Example 224, trans-N-[6-chloro-4-(5-ethoxy-1H-pyrrolo[2,3-b]pyridin-3-yl)pyridin-2-yl]cyclohexane-1,4-diamine] the value was less than 10 nM; for `Nc1cnc2[nH]cc(-c3cc(Cl)nc(NC4CCCCC4)c3)c2c1` [Example 225, 3-[2-chloro-6-(cyclohexylamino)pyridin-4-yl]-1H-pyrrolo[2,3-b]pyridin-5-amine], less than 10 nM; for `CC(=O)Nc1cnc2[nH]cc(-c3cc(Cl)nc(NC4CCCCC4)c3)c2c1` [Example 226, N-{3-[2-chloro-6-(cyclohexylamino)pyridin-4-yl]-1H-pyrrolo[2,3-b]pyridin-5-yl}acetamide], less than 10 nM.

The compound `CNCC(=O)N[C@H]1CC[C@H](Nc2cc(-c3c[nH]c4ncc(OC)cc34)cc(Cl)n2)CC1` [Example 227, N-(trans-4-{[6-chloro-4-(5-methoxy-1H-pyrrolo[2,3-b]pyridin-3-yl)pyridin-2-yl]amino}cyclohexyl)-N^2-methylglycinamide] registered a Ki of less than 10 nM. Compound `COc1cnc2[nH]cc(-c3cc(Cl)nc(N[C@H]4CC[C@H](NC(=O)C(C)C)CC4)c3)c2c1` [Example 228, N-(trans-4-{[6-chloro-4-(5-methoxy-1H-pyrrolo[2,3-b]pyridin-3-yl)pyridin-2-yl]amino}cyclohexyl)-2-methylpropanamide] displayed a Ki of less than 10 nM. For `O=C(CN1CCN(c2ccc(F)cc2)CC1)N[C@H]1CC[C@H](Nc2cc(-c3c[nH]c4ncccc34)cc(Cl)n2)CC1` [Example 229, N-(trans-4-{[6-chloro-4-(1H-pyrrolo[2,3-b]pyridin-3-yl)pyridin-2-yl]amino}cyclohexyl)-2-[4-(4-fluorophenyl)piperazin-1-yl]acetamide] the value was less than 10 nM. `O=C(CN1CCN(c2ccncc2)CC1)N[C@H]1CC[C@H](Nc2cc(-c3c[nH]c4ncccc34)cc(Cl)n2)CC1` [Example 230, N-(trans-4-{[6-chloro-4-(1H-pyrrolo[2,3-b]pyridin-3-yl)pyridin-2-yl]amino}cyclohexyl)-2-[4-(pyridin-4-yl)piperazin-1-yl]acetamide] returned a Ki of less than 10 nM. Consider `O=C(CN1CCN(C2CCCCC2)CC1)N[C@H]1CC[C@H](Nc2cc(-c3c[nH]c4ncccc34)cc(Cl)n2)CC1` [Example 231, N-(trans-4-{[6-chloro-4-(1H-pyrrolo[2,3-b]pyridin-3-yl)pyridin-2-yl]amino}cyclohexyl)-2-(4-cyclohexylpiperazin-1-yl)acetamide], for which the Ki was less than 10 nM. For `CCCCN1CCN(CC(=O)N[C@H]2CC[C@H](Nc3cc(-c4c[nH]c5ncccc45)cc(Cl)n3)CC2)CC1` [Example 232, 2-(4-butylpiperazine-1-yl)-N-(trans-4-{[6-chloro-4-(1H-pyrrolo[2,3-b]pyridin-3-yl)pyridin-2-yl]amino}cyclohexyl)acetamide], the Ki is less than 10 nM. For the compound `O=C(CN1CCN(C(=O)c2ccco2)CC1)N[C@H]1CC[C@H](Nc2cc(-c3c[nH]c4ncccc34)cc(Cl)n2)CC1` [Example 233, N-(trans-4-{[6-chloro-4-(1H-pyrrolo[2,3-b]pyridin-3-yl)pyridin-2-yl]amino}cyclohexyl)-2-[4-(furan-2-ylcarbonyl)piperazin-1-yl]acetamide], the Ki is less than 10 nM. Compound `N#Cc1ccccc1N1CCN(CC(=O)N[C@H]2CC[C@H](Nc3cc(-c4c[nH]c5ncccc45)cc(Cl)n3)CC2)CC1` [Example 234, N-(trans-4-{[6-chloro-4-(1H-pyrrolo[2,3-b]pyridin-3-yl)pyridin-2-yl]amino}cyclohexyl)-2-[4-(2-cyanophenyl)piperazin-1-yl]acetamide] had a Ki of less than 10 nM. On to `O=C(O)c1cnc2[nH]cc(-c3cc(Cl)nc(NC4CCCCC4)c3)c2c1` [Example 235, 3-[2-chloro-6-(cyclohexylamino)pyridin-4-yl]-1H-pyrrolo[2,3-b]pyridine-5-carboxylic acid], for which the inhibition constant Ki was less than 10 nM. `COc1cnc2[nH]cc(-c3cc(Cl)nc(NC4CCC(C5CCNCC5)CC4)c3)c2c1` (stereo not drawn) [Example 236, 6-chloro-4-(5-methoxy-1H-pyrrolo[2,3-b]pyridin-3-yl)-N-[4-(piperidin-4-yl)cyclohexyl]pyridin-2-amine] showed a Ki of less than 10 nM. For `COc1cnc2[nH]cc(-c3cc(Cl)nc(NC4CCC(CC5CCC(N)CC5)CC4)c3)c2c1` (stereo not drawn) [Example 237, N-{4-[(4-aminocyclohexyl)methyl]cyclohexyl}-6-chloro-4-(5-methoxy-1H-pyrrolo[2,3-b]pyridin-3-yl)pyridin-2-amine], the Ki was less than 10 nM. On to `COc1cnc2[nH]cc(-c3cc(Cl)nc(NC4CCC(CC5CCC(NC6CCCCC6)CC5)CC4)c3)c2c1` (stereo not drawn) [Example 238, 6-chloro-N-(4-{[4-(cyclohexylamino)cyclohexyl]methyl}cyclohexyl)-4-(5-methoxy-1H-pyrrolo[2,3-b]pyridin-3-yl)pyridin-2-amine], for which the Ki is less than 10 nM. Consider `Clc1cc(-c2c[nH]c3ncc(Nc4ccccc4)cc23)cc(NC2CCCCC2)n1` [Example 239, 3-[2-chloro-6-(cyclohexylamino)pyridin-4-yl]-N-phenyl-1H-pyrrolo[2,3-b]pyridin-5-amine], for which the Ki lay in the range of 10 to 100 nM.
